Measurements as given in PubChem BioAssay (NCI).
“And” between values parts separate entries of the source, which are not always exact repeats. Identical values can stand only once.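 Protocol summary: plate cells (96-well), add compound at 5 concentrations, incubate 48 h, interpolate endpoints linearly. GI50 = concentration required for 50% inhibition of growth. At the TGI there is no net growth.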

Tests used:
Test in all cases: NCI anticancer screen, dose series, 48 h
[1] = system: BT-549 breast
[2] = system: HCC-2998 colon
[3] = system: HCT-116 colon
[4] = system: HT29 colon
[5] = system: LOX IMVI melanoma
[6] = system: M14 melanoma
[7] = system: OVCAR-3 ovarian
[8] = system: SK-MEL-28 melanoma
[9] = system: UACC-62 melanoma
[10] = system: UO-31 renal

Row | Compound | GI50 [1] | TGI [1] | GI50 [2] | TGI [2] | GI50 [3] | TGI [3] | GI50 [4] | TGI [4] | GI50 [5] | TGI [5] | GI50 [6] | TGI [6] | GI50 [7] | TGI [7] | GI50 [8] | TGI [8] | GI50 [9] | TGI [9] | GI50 [10] | TGI [10]
1 | NS(=O)(=O)c1ccc(N=Nc2c(O)[nH]c3ccc(C(=O)NCCc4cnc[nH]4)cc23)cc1 | > 25 µM | > 25 µM | > 25 µM | > 25 µM | > 25 µM | > 25 µM | > 25 µM | > 25 µM | > 25 µM | > 25 µM | > 25 µM | > 25 µM | > 25 µM | > 25 µM | > 25 µM | > 25 µM | > 25 µM | > 25 µM | > 25 µM | > 25 µM
2 | COc1ccc(Cc2cc(OC)c(OC)c(OC)c2)cc1 |  | 75.6 µM |  | 1.4 µM |  | 12.4 µM |  | 8.25 µM |  | > 89.7 µM |  | > 100 µM |  | 0.424 µM |  | > 100 µM |  | > 100 µM |  | 90.5 µM
3 | CCOC(=O)C1=C(C)NC(C)=C(C(=O)OCCNC(=O)c2ccc(N=[N+]=[N-])cc2)C1c1ccccc1C(F)(F)F (configuration not stated) |  | 68.2 µM |  | 21.5 µM |  | 21.5 µM |  | 21.5 µM |  | > 31.6 µM |  | 21.5 µM |  | 21.5 µM |  | 21.5 µM |  | 21.5 µM |  | 21.5 µM
4 | Cc1cc(I)cc(CNCCN2CCOCC2)c1O | 15.4 µM | 61.3 µM | 43.9 µM | > 100 µM | 37.2 µM | > 100 µM | > 100 µM | > 100 µM | > 100 µM | > 100 µM | 26.9 µM | > 100 µM | > 100 µM | > 100 µM | > 100 µM | > 100 µM | > 100 µM | > 100 µM | 67.8 µM | > 100 µM
5 | C=C1C[C@@H](O)[C@@H](Br)C(C)(C)[C@]12CCC(C)(Br)C(Cl)C2 (some centres not stated) | 18.9 µM | > 50 µM and 38.3 µM | 17.1 µM | > 50 µM and 30.8 µM | 19.3 µM | > 50 µM and 36.2 µM | 1.95 µM | 50 µM and 16.4 µM | 18.1 µM | > 50 µM and 35 µM | 17.9 µM | > 50 µM and 34.6 µM | 17.4 µM | > 50 µM and 33.7 µM | 18 µM | > 50 µM and 36.8 µM | 15.6 µM | > 50 µM and 29.3 µM | 25.4 µM | > 50 µM and 43.7 µM
6 | COc1cc(N2CCN(C(C)C)CC2)ccc1Nc1nc(Nc2ccc(F)cc2C(=O)NCC(O)CO)c2cc[nH]c2n1 (configuration not stated) | 8.23 µM | > 25 µM | 7.21 µM | > 25 µM | 1.69 µM | > 25 µM | 1.25 µM | > 25 µM | 1.64 µM | > 25 µM | 12 µM | > 25 µM | > 25 µM | > 25 µM | > 25 µM | > 25 µM | 9.87 µM | > 25 µM | > 25 µM | > 25 µM
7 | O=C(CN1CCN(CCN2C(=O)c3cccc4cccc(c34)C2=O)CC1)Nc1ccc2ncsc2c1 | 11.9 µM | 30.1 µM | 5.84 µM | > 100 µM | 3.57 µM | 16.4 µM | 3.61 µM | 16.5 µM | 4.93 µM | 20.4 µM | 8.63 µM | 22.2 µM | 7.34 µM | 21.5 µM | 11 µM | 23.8 µM | 6.61 µM | 22.4 µM | 6.21 µM | 30.8 µM
8 | CC(C)n1nc(C#Cc2cccc(O)c2)c2c(N)ncnc21 | 1.33 µM and 1.34 µM | 4.56 µM and 6.18 µM | 2.4 µM and 4.46 µM | 27.4 µM and 21.5 µM | 1.17 µM and 0.586 µM | 7.78 µM and 10.8 µM | 2.04 µM and 1.74 µM | 50 µM and 19.4 µM | 0.685 µM and 0.316 µM | 2.64 µM and 1.19 µM | 0.693 µM and 0.397 µM | 4.68 µM and 2.42 µM | 1.32 µM and 1.7 µM | 5.62 µM and 7.63 µM | 0.657 µM and 0.304 µM | 2.73 µM and 2.36 µM | 0.82 µM and 0.346 µM | 2.59 µM and 1.58 µM | 0.391 µM and 0.416 µM | 1.92 µM and 2.83 µM
9 | CC(=O)N(C)c1cc(NCc2ccccc2)ccc1OCc1ccccc1 |  | 40.3 µM |  | 35 µM |  | > 100 µM |  | 43 µM |  | 36.2 µM |  | 50.5 µM |  | 32.8 µM |  | 35.4 µM |  | 31.8 µM |  | 28 µM
10 | O=C(NCCCl)NCCN1c2nc3ccccc3cc2Sc2cc3ccccc3nc21 | 7.01 µM | > 48.6 µM | 1.68 µM | 5.09 µM | 0.8 µM | 3.43 µM | 1.11 µM | 8.89 µM | 2.36 µM | 14.6 µM | 1.77 µM | 6.73 µM | 1.45 µM | 16.1 µM | 2.8 µM | 8.53 µM | 1.62 µM | 18.2 µM | 2.64 µM | > 52.1 µM
11 | CCOC(=O)Nc1ccc2nc(N3CCCCCC3)sc2c1 | 12 µM | 49.6 µM | 7.59 µM | 48 µM | 0.573 µM | > 77.9 µM | 0.44 µM | 9.87 µM | 2.16 µM | > 100 µM | 0.719 µM | > 70.4 µM | 1.66 µM | 10.7 µM | 7.14 µM | > 91.7 µM | 1.45 µM | > 100 µM | 6.17 µM | 75.1 µM
12 | COC(=O)[C@H](Cc1ccccc1)NNC(=O)c1csc([C@@H](C[C@H](C(C)C)N(C)C(=O)[C@@H](NC(=O)[C@H]2CCCCN2C)C2CC2)OC(C)=O)n1 |  | 0.317 µM and 0.973 µM |  | 25 µM and > 100 µM |  | 25 µM and > 100 µM |  | 25 µM and > 100 µM |  | 25 µM and > 100 µM | 0.0112 µM and 0.0025 µM | 25 µM | 0.00213 µM |  |  | 25 µM and > 100 µM | 0.0176 µM and 0.0025 µM | 25 µM |  | 25 µM and > 100 µM
13 | CCC(CC)c1cc(N[C@H]2CC[C@H](N)C2)n2nccc2n1 | 1.36 µM | 3.22 µM | 1.52 µM | 12 µM | 0.402 µM | > 100 µM | 0.735 µM | > 100 µM | 0.747 µM | > 100 µM | 1.74 µM | 5.4 µM | 1.01 µM | > 100 µM | 1.93 µM | 5.24 µM | 1.45 µM | 3.46 µM | 2.08 µM | 5.69 µM
14 | COc1ccc(C2CC(c3ccccc3)=NN2C(=O)c2cc(OC)c(OC)c(OC)c2)cc1O (configuration not stated) | 2 µM | 21.4 µM | 0.724 µM | 4.08 µM | 0.313 µM | 3.05 µM | 2.96 µM | 8.31 µM | 0.611 µM | 15.6 µM | 0.299 µM | 3.99 µM | 0.326 µM | 3.99 µM | 0.597 µM | > 47.6 µM | 0.269 µM | 15.8 µM | 0.751 µM | > 100 µM
15 | CCNC(=O)Oc1ccc(/C(=C(\C)c2ccc(Cl)cc2)c2ccc(OCCN(CC)CC)cc2)cc1 | 5.33 µM | 18.5 µM | 4.39 µM | 16.3 µM | 2.04 µM | 4.86 µM | 2.52 µM | 6.44 µM | 1.94 µM | 4.02 µM | 1.97 µM | 3.97 µM | 4.56 µM | 16.7 µM | 1.74 µM | 3.52 µM | 2.07 µM | 4 µM | 1.54 µM | 3.62 µM
